Source: patent publication US4415495A, “5,6;8,9-Tetrahydro-7H-dibenz(d,f)azonines” (Godecke Aktiengesellschaft, priority 1981, dated 1983)

Tests used:
in vivo = conditions: mouse, po
Description: The compounds according to the present invention are administered intragastrally to male mice (NMRI) with a body weight of from 20 to 25 g. Each dosage group consists of 4 animals. The LD50 values are determined after having observed the animals for 7 days.

[1] = system: Rats with calcium chloride induced arrhythmias; test: Calcium chloride induced arrhythmias in narcotised rats (prophylactic i.v. administration); format: in vivo; conditions: for average period of arrhythmia: control 10.9 min.
Text: By means of the intravenous infusion of a calcium chloride solution, […] induced in narcotised rats which, after termination of the infusion, continue for a certain period of time (modification of the method described by Malinow et al., Arch. Int. Pharmacodyn, 102, 266/1955). This arrhythmic phase is shortened by the prophylactic administration of antiarrhythmic drugs. […] The results of the experiments with calcium chloride induced arrhythmias on rats are summarized in the following Table I. The average period of arrhythmia is calculated from experiments with at least 10 animals.

rabbit eye = test: Local anesthetic action on the rabbit eye (corneal reflex); format: in vivo, rabbits; conditions: for Period of Action: observation discontinued after 60 minutes
Description: The corneal reflex is induced in rabbits using a horse hair which bends with a pressure of about 250 mg (modification of the method described by M. von Frey, Beitrage zur Physiologie des Schmerzsinns, Vehr. d. Kgl. Sachs, Ges. d. Wiss. zu Leipzig, Math.-phys. Kl., 46, 185/1894; Untersuchungen uber die Sinnesfunktionen der menschlichen Haut, Leipzig, 1896). After instillation of local anesthetics into the conjunctival sac of the eye, the number of impacts with the horse hair which result in closure of the eyelid is increased. At intervals of 4 minutes, in each case a maximum of 100 successive impacts are carried out and such an action is taken as being 100%. The period of investigation is at most 60 minutes. The action of the compounds according to the present invention is compared with that of tetracaine and procainamide.
The following Table VII contains the results of the experiments on the rabbit eye. There are also given, in addition to the concentrations of the test solutions which were instilled into the conjunctival sac, the actions of the compounds in % (see description of the method), as well as their period of action. In each case, the observations were discontinued after 60 minutes.

[2] = system: guinea pig left ventricle; test: Refractory time of electrically stimulated guinea pig left ventricles (organ bath)
Description: The left ventricles of guinea pig hearts are electrically stimulated in an organ bath, the amplitude of contraction being recorded. By means of a second stimulus, the time is determined below which the heart muscle no longer reacts with a separately resolvable contraction. This time is defined as the refractory time.
The following Table II contains information concerning the maximum tested compound concentrations, as well as the average prolongation of the refractory time measured at this concentration in comparison with the initial value of, in each case, at least 6 experiments.

[3] = system: dogs with coronary ligature; test: Coronary ligature on dogs (period of sinus rhythm from ECG); format: in vivo
Text: Using narcotised dogs, after thoracotomy, a coronary artery (side branch of the R. interventr. post. or of the R. circumflexus) is ligatured (see. A. S. Harris, Circulation, 1, 1318/1950). The heart rhythm disturbances which occur as a result thereof are, on the day following the operation, recorded on the awake animals and treated with the compounds according to the present invention by intragastral and intravenous administration. Procainamide is used as a positive standard. From the ECG, the time is determined in which, after administration of the test compound, a sinus rhythm can be recognized.
The compounds of Examples 1 (Table III), 4 (Table IV) and 10 (Table V) were tested on dogs with a coronary ligature. All the compounds were, in each case, tested on at least 5 animals.

[4] = Oryctolagus cuniculus, topical, concentration 1.0 %
[5] = Oryctolagus cuniculus, topical, concentration 0.1 %
[6] = Oryctolagus cuniculus, topical, concentration 0.5 %
[7] = Oryctolagus cuniculus, topical, concentration 2.0 %

COc1ccc2c(c1)-c1c(ccc(OC)c1OC)CC(Cc1ccccc1)N(C)CC2 (racemic) [Example 5, (±)-6-Benzyl-7-methyl-5,6;8,9-tetrahydro-1,2,12-trimethoxy-7H-dibenz(d,f)azonine]
LD50 at 168 h (in vivo): ~1000 mg/kg | average period of arrhythmia ([1]; 5 mg/kg I.V.): 4.1 min | inhibition in vivo at 1 % (rabbit eye; [4]): 100% | Period of Action (rabbit eye; concentration 1.0 %): > 60 min | average prolongation of the refractory time ([2]; 4.0 × 10^-6 g/ml in the bath): 25 ms

COc1ccc2c(c1)-c1c(ccc(OC)c1O)CC(CCc1ccccc1)N(C)CC2 (single isomer, unassigned; (+)) [Example 10, (+)-2,12-Dimethoxy-1-hydroxy-7-methyl-6-phenethyl-5,6;8,9-tetrahydro-7H-dibenz(d,f)azonine]
LD50 at 168 h (in vivo): 600 mg/kg | average period of arrhythmia ([1]; 2.5 mg/kg I.V.): 5.4 min | inhibition in vivo at 1 % (rabbit eye; [4]): 100% | Period of Action (rabbit eye; concentration 1.0 %): > 60 min | average period of eurhythmia ([3]; 2 mg/kg i.v.): 40 min | average period of eurhythmia ([3]; 5 mg/kg i.g.): 105 min | average period of eurhythmia ([3]; 10 mg/kg i.g.): 169 min | average period of eurhythmia ([3]; 40 mg/kg i.g.): 185 min | average prolongation of the refractory time ([2]; 4.0 × 10^-6 g/ml in the bath): 44 ms

COc1cccc(CC2Cc3ccc(OC)c(O)c3-c3cc(OC)ccc3CCN2C)c1 (single isomer, unassigned; (-)) [Example 2, (-)-6-(3'-Methoxybenzyl)-2,12-dimethoxy-1-hydroxy-7-methyl-5,6;8,9-tetrahydro-7H-dibenz(d,f)azonine]
LD50 at 168 h (in vivo): 1000 mg/kg | average period of arrhythmia ([1]; 10 mg/kg I.V.): 4.9 min | inhibition in vivo at 0.1 % (rabbit eye; [5]): 78% | inhibition in vivo at 0.5 % (rabbit eye; [6]): 100% | inhibition in vivo at 1 % (rabbit eye; [4]): 100% | Period of Action (rabbit eye; concentration 0.1 %): 46 min | Period of Action (rabbit eye; concentration 0.5 %): about 52 Min. | Period of Action (rabbit eye; concentration 1.0 %): > 60 min | average prolongation of the refractory time ([2]; 8.0 × 10^-6 g/ml in the bath): 46 ms

COc1ccc2c(c1)-c1c(ccc(OC)c1O)CC(Cc1ccc(F)cc1)N(C)CC2 (single isomer, unassigned; (-)) [Example 3, (-)-6-(4'-Fluorobenzyl)-2,12-dimethoxy-1-hydroxy-7-methyl-5,6;8,9-tetrahydro-7H-dibenz(d,f)azonine]
LD50 at 168 h (in vivo): 600 mg/kg | average period of arrhythmia ([1]; 10 mg/kg I.V.): 5.4 min | inhibition in vivo at 0.5 % (rabbit eye; [6]): 100% | Period of Action (rabbit eye; concentration 0.5 %): > 60 min | average prolongation of the refractory time ([2]; 1.6 × 10^-5 g/ml in the bath): 29 ms

COc1ccc2c(c1)-c1c(ccc(OC)c1O)CC(Cc1ccccc1Cl)N(C)CC2 (single isomer, unassigned; (-)) [Example 4, (-)-6-(2'-Chlorobenzyl)-2,12-dimethoxy-hydroxy-7-methyl-5,6;8,9-tetrahydro-7H-dibenz(d,f)azonine]
LD50 at 168 h (in vivo): 1200 mg/kg | average period of arrhythmia ([1]; 5 mg/kg I.V.): 4.6 min | average period of arrhythmia ([1]; 10 mg/kg I.V.): 2.3 min | average period of eurhythmia ([3]; 4 mg/kg i.v.): 68 min | average period of eurhythmia ([3]; 40 mg/kg i.g.): 91 min | average period of eurhythmia ([3]; 60 mg/kg i.g.): 103 min | average period of eurhythmia ([3]; 80 mg/kg i.g.): 139 min | average prolongation of the refractory time ([2]; 1.6 × 10^-5 g/ml in the bath): 21 ms

COc1cccc(CC2Cc3ccc(OC)c(OC)c3-c3cc(OC)ccc3CCN2C)c1 (single isomer, unassigned; (-)) [Example 6, (-)-6-(3'-Methoxybenzyl)-7-methyl-5,6;8,9-tetrahydro-1,2,12-trimethoxy-7H-dibenz(d,f)azonine]
LD50 at 168 h (in vivo): ~300 mg/kg | average period of arrhythmia ([1]; 4 mg/kg I.V.): 4.6 min | inhibition in vivo at 1 % (rabbit eye; [4]): 79% | inhibition in vivo at 2 % (rabbit eye; [7]): 100% | Period of Action (rabbit eye; concentration 1.0 %): > 60 min | Period of Action (rabbit eye; concentration 2.0 %): > 60 min

COc1cccc(CC2Cc3ccc(OC)c(OC(C)=O)c3-c3cc(OC)ccc3CCN2C)c1 (single isomer, unassigned; (-)) [Example 7, (-)-1-Acetoxy-6-(3'-methoxybenzyl)-7-methyl-5,6;8,9-tetrahydro-2,12-dimethoxy-7H-dibenz(d,f)azonine]
LD50 at 168 h (in vivo): 900 mg/kg | average period of arrhythmia ([1]; 4 mg/kg I.V.): 4.1 min | inhibition in vivo at 0.5 % (rabbit eye; [6]): 63% | inhibition in vivo at 1 % (rabbit eye; [4]): 100% | Period of Action (rabbit eye; concentration 0.5 %): > 60 min | Period of Action (rabbit eye; concentration 1.0 %): > 60 min | average prolongation of the refractory time ([2]; 4.0 × 10^-6 g/ml in the bath): 18 ms

COc1ccc2c(c1)-c1c(ccc(OC)c1OC(C)=O)CC(Cc1ccccc1)N(C)CC2 (single isomer, unassigned; (-)) [Example 8, (-)-1-Acetoxy-6-benzyl-2,12-dimethoxy-7-methyl-5,6;8,9-tetrahydro-7H-dibenz(d,f)azonine]
LD50 at 168 h (in vivo): 1200 mg/kg | average period of arrhythmia ([1]; 4 mg/kg I.V.): 5.7 min | inhibition in vivo at 0.5 % (rabbit eye; [6]): 74% | inhibition in vivo at 2 % (rabbit eye; [7]): 100% | Period of Action (rabbit eye; concentration 0.5 %): > 60 min | Period of Action (rabbit eye; concentration 2.0 %): > 60 min | average prolongation of the refractory time ([2]; 4.0 × 10^-6 g/ml in the bath): 21 ms

COc1ccc2c(c1)-c1c(ccc(OC)c1O)CC(Cc1c(Cl)cccc1Cl)N(C)CC2 (single isomer, unassigned; (-)) [Example 11, (-)-6-(2',6'-Dichlorobenzyl)-2,12-dimethoxy-7-methyl-1-hydroxy-5,6;8,9-tetrahydro-7H-dibenz(d,f)azonine]
LD50 at 168 h (in vivo): > 1600 mg/kg | average period of arrhythmia ([1]; 8 mg/kg I.V.): 7.7 min | antiarrhythmic action / period of arrhythmia (in words) ([1]; in comparison with control animals or procainamide): just as good | inhibition in vivo at 1 % (rabbit eye; [4]): 55% | inhibition in vivo at 2 % (rabbit eye; [7]): 100% | Period of Action (rabbit eye; concentration 1.0 %): > 60 min | Period of Action (rabbit eye; concentration 2.0 %): > 60 min | average prolongation of the refractory time ([2]; 3.2 × 10^-5 g/ml in the bath): 29 ms

COc1ccc2c(c1)-c1c(ccc(OC)c1O)CC(Cc1cccc(C)c1)N(C)CC2 (single isomer, unassigned; (-)) [Example 12, (-)-6-(3'-Methylbenzyl)-2,12-dimethoxy-7-methyl-1-hydroxy-5,6;8,9-tetrahydro-7H-dibenz(d,f)azonine]
LD50 at 168 h (in vivo): 1200 mg/kg | average period of arrhythmia ([1]; 5 mg/kg I.V.): 6.4 min | inhibition in vivo at 0.1 % (rabbit eye; [5]): 68% | inhibition in vivo at 0.25 % (rabbit eye; Oryctolagus cuniculus, topical, concentration 0.25 %): 100% | Period of Action (rabbit eye; concentration 0.1 %): about 56 Min. | Period of Action (rabbit eye; concentration 0.25 %): > 60 min | average prolongation of the refractory time ([2]; 6.4 × 10^-5 g/ml in the bath): 51 ms

CC[C@H]1[C@@H]2C[C@H]3[C@@H]4N(C)c5ccccc5[C@]45C[C@@H]([C@H]2[C@H]5O)N3[C@@H]1O [Ajmaline, ajmaline, reference compound]
average prolongation of the refractory time ([2]; 1.6 × 10^-5 g/ml in the bath): 16 ms

COc1ccc2c(c1)-c1c(ccc(OC)c1O)CC(Cc1ccccc1)NCC2 (stereo not drawn) [Example 9, 6-Benzyl-2,12-dimethoxy-1-hydroxy-5,6;8,9-tetrahydro-7H-dibenz(d,f)azonine]
average period of arrhythmia ([1]; 5 mg/kg I.V.): 6.8 min | average prolongation of the refractory time ([2]; 1.6 × 10^-5 g/ml in the bath): 27 ms

COc1ccc(CCN(C)CCCC(C#N)(c2ccc(OC)c(OC)c2)C(C)C)cc1OC (stereo not drawn) [Verapamil, verapamil, reference compound]
average prolongation of the refractory time ([2]; 1.6 × 10^-5 g/ml in the bath): 16 ms

O=C1NC(=O)C(c2ccccc2)(c2ccccc2)N1 [phenytoin, reference compound]
average period of arrhythmia ([1]; 20 mg/kg I.V.): 16.5 min | average prolongation of the refractory time ([2]; 1.6 × 10^-5 g/ml in the bath): -6 ms

CCCCNc1ccc(C(=O)OCCN(C)C)cc1 [tetracaine, reference compound]
inhibition in vivo at 0.1 % (rabbit eye; [5]): 100% | Period of Action (rabbit eye; concentration 0.1 %): about 44 Min. | duration of maximum activity strength (rabbit eye; concentration not given there): 44 min | maximum activity strength (rabbit eye; concentration not given there): 100%
